Experimental data published in paper PMC4865845, “A human genome-wide loss-of-function screen identifies effective chikungunya antiviral drugs” (Nature Communications, 2016).

These substances were tested on CHIKV.
Type: cell-based, chikungunya virus
Work on “s15684 (sense GGAGCTGATCATCAACAAA; chemistry not given here)” yielded a Score_si4 of 1.33.
With “s15685 (sense GGATGAGAGTCGCACCTAT; chemistry not given here)” the Score_si1 was 2.03.
With “s15686 (sense CCATCCACATGTACATCAA; chemistry not given here)” the Score_si2 was 1.49.
For “s15687 (sense CCCGTATCATGATCCACCA; chemistry not given here)”, the Score_si1 was 1.56.
Substance “s15796 (CTACGATTCTGGTGGAATA; chemistry not given here)” has a Score_si1 of 1.5.
“s15797 (GGAATTACGGAGATATAGA; chemistry not given here)” showed a Score_si3 of 1.45.
“s15798 (GAATTACGGAGATATAGAA; chemistry not given here)” showed a Score_si2 of 1.46.
“s16045 (GGTTTATCCACGGTAAAGA; chemistry not given here) [reference compound]” showed a Score_si4 of -0.44.
“s16046 (GCACAGATCCTTCCGTTTA; chemistry not given here) [reference compound]” showed a Score_si3 of -0.45.
“s16047 (GAACCCATATTATTAGTGA; chemistry not given here) [reference compound]” gave a Score_si2 of -0.72.
With “s16316 (GAATTAGGAAGGACTATTT; chemistry not given here)” the Score_si2 was 0.85.
Work on “s16317 (GAACGAGTCCTTGAAGGTT; chemistry not given here)” yielded a Score_si4 of 0.08.
With “s16318 (AGGCATCTTTGAGACGATT; chemistry not given here)” the Score_si3 was 0.61.
For “s16459 (GATGGATCCATGTAATACA; chemistry not given here)”, the Score_si4 was 0.81.
“s16461 (GGTCAATCCTAGTATCTCT; chemistry not given here)” gave a Score_si3 of 0.88.
Substance “s16633 (CAACCACAATGTTCGTAAA; chemistry not given here)” has a Score_si3 of 1.99.
In the case of “s16634 (GCATAGTTTCGGTCATCTA; chemistry not given here)”, the Score_si1 is reported as 2.03.
“s16635 (GAGCACTACTTGTACATGA; chemistry not given here)” gave a Score_si2 of 2.02.
Substance “s16837 (CAATGATCCAATCCACGAA; chemistry not given here)” has a Score_si1 of 1.36.
For “s16996 (CAACATTGGTGGGAATGCA; chemistry not given here)”, the Score_si2 was 1.51.
Substance “s16997 (CAGCTTCCATTATGCCCAA; chemistry not given here)” has a Score_si3 of 0.97.
“s16998 (GAAATTCCATGTCATTGTA; chemistry not given here)” showed a Score_si4 of 0.65.
Substance “s16999 (GCACGTAACAGCTAAGGAA; chemistry not given here)” has a Score_si2 of 1.29.
In the case of “s17000 (GATGAAAGGTTACAATCCA; chemistry not given here)”, the Score_si3 is reported as 1.29.
With “s17018 (GGAAATAGGTCTAGTACTA; chemistry not given here)” the Score_si3 was 1.2.
Work on “s17019 (CCACGTGATAAATCAAGAA; chemistry not given here)” yielded a Score_si2 of 1.29.
“s17187 (GGATTGACCTCACCCAGAA; chemistry not given here)” showed a Score_si1 of 2.03.
For “s17301 (GCCTGGTATTTTGAAATCA; chemistry not given here)”, the Score_si3 was 0.7.
In the case of “s17302 (GCTCCTTTAGGTTATGATA; chemistry not given here)”, the Score_si4 is reported as -0.05.
Work on “s17590 (CAACAGTTCTCAGACCAAA; chemistry not given here) [reference compound]” yielded a Score_si2 of -0.8.
Work on “s17591 (CGATATGAACCTGACAGTA; chemistry not given here) [reference compound]” yielded a Score_si3 of -0.15.
“s17592 (GCAACTCTCCTTCACCAAT; chemistry not given here) [reference compound]” was tested, and the Score_si4 was -0.08.
Substance “s17802 (GGAGTTAAACATAGATGTA; chemistry not given here)” has a Score_si3 of 1.28.
With “s17901 (GGAAATCGGCCTACAAGAT; chemistry not given here)” the Score_si3 was 1.51.
“s18074 (CCTCGAGACTATACGGTTA; chemistry not given here) [reference compound]” was tested, and the Score_si4 was -0.5.
Substance “s18076 (GAAATACCCTATTACCAAA; chemistry not given here) [reference compound]” has a Score_si3 of -0.61.
Substance “s18077 (CCTGTTCATTGATCGAACA; chemistry not given here) [reference compound]” has a Score_si3 of -0.59.
Work on “s18079 (CAATAGTAAAGGGATATAA; chemistry not given here) [reference compound]” yielded a Score_si4 of -0.28.
“s18239 (CGGTGACTCTTTATGCACA; chemistry not given here)” showed a Score_si2 of 1.37.
“s18240 (GATTGATGCTGGAAGTAGA; chemistry not given here)” gave a Score_si3 of 1.21.
“s18241 (GCTTGATGGTTCAACTCCA; chemistry not given here)” showed a Score_si1 of 2.01.
Substance “s18269 (CCATTGCGGAGATCAAGAA; chemistry not given here)” has a Score_si4 of 0.18.
For “s18271 (CCTCTTCACTAAGACCCAT; chemistry not given here)”, the Score_si3 was 1.67.
With “s18704 (sense GCAGATTATTTGCAAGCGA; chemistry not given here) [reference compound]” the Score_si3 was -0.73.
With “s18705 (sense GCTCGTTACCTACATAGTA; chemistry not given here) [reference compound]” the Score_si2 was -0.84.
With “s18706 (sense GAATCTGAACGAACGATAT; chemistry not given here) [reference compound]” the Score_si4 was -0.67.
“s18906 (sense GAAGGAATTTCATTTGACA; chemistry not given here)” gave a Score_si3 of 1.68.
Work on “s18908 (sense GCAGATCACATGAAGAGAA; chemistry not given here)” yielded a Score_si2 of 1.75.
Work on “s19038 (sense GGAATATTCTTCAGCTACA; chemistry not given here)” yielded a Score_si3 of 1.51.
In the case of “s19040 (sense GTACATAACATCAATTTCA; chemistry not given here)”, the Score_si4 is reported as 0.32.
“s19089 (sense GGATAAGACAGTAACCCGA; chemistry not given here) [reference compound]” was tested, and the Score_si3 was -0.56.
In the case of “s19090 (sense GGATCTGACTATTCGCACT; chemistry not given here) [reference compound]”, the Score_si4 is reported as 0.04.
In the case of “s19091 (sense CAACAACCTTACACGAGTA; chemistry not given here) [reference compound]”, the Score_si2 is reported as -0.78.
Substance “s19989 (sense CTATGCTACCCTCTACTTT; chemistry not given here)” has a Score_si4 of 0.18.
“s19990 (sense GGCTCTGACTACAAACTGA; chemistry not given here)” gave a Score_si3 of 0.89.
Work on “s20340 (sense CAGGCTATCTGAACACGGT; chemistry not given here)” yielded a Score_si3 of 1.49.
For “s20508 (sense CACTTGAGGAGTTACTGAA; chemistry not given here) [reference compound]”, the Score_si4 was -0.76.
Work on “s20509 (sense GGACGGCCCAAATCCAAAA; chemistry not given here) [reference compound]” yielded a Score_si3 of -0.99.
Substance “s20629 (sense GGAGAAAGAATCAACGGAA; chemistry not given here)” has a Score_si2 of 2.
Work on “s20630 (sense GCAAGCTGCTGATCGAGTT; chemistry not given here)” yielded a Score_si4 of 0.85.
Work on “s20631 (sense GGACGGAAGCGAAAATCGA; chemistry not given here)” yielded a Score_si3 of 1.89.
“s20649 (sense GAATTACGGAGTCAACAAA; chemistry not given here) [reference compound]” showed a Score_si3 of -1.04.
With “s20833 (sense GAATATGACTCTGCAAAGA; chemistry not given here)” the Score_si4 was 0.65.
In the case of “s21424 (sense GCAGTGAAATATCCATGAT; chemistry not given here)”, the Score_si2 is reported as 0.74.
Work on “s21425 (sense GCCTGTTACAGATGACATA; chemistry not given here)” yielded a Score_si3 of 0.63.
Work on “s21552 (sense TCGCTTCTGTATTTATGTT; chemistry not given here)” yielded a Score_si2 of 1.41.
“s21554 (sense CAGTATTGGTTATGAGTCT; chemistry not given here)” was tested, and the Score_si4 was 0.67.
In the case of “s21624 (sense GGTGTAACCGATTCACTAT; chemistry not given here)”, the Score_si3 is reported as 0.86.
For “s21625 (sense GCAGCCTTGTTGCTCTTAA; chemistry not given here)”, the Score_si2 was 1.37.
In the case of “s21626 (sense GGCAGTTGATTGTGGATGA; chemistry not given here)”, the Score_si4 is reported as 0.37.
“s24800 (sense CTATGGATGTTGATGTAGA; chemistry not given here)” was tested, and the Score_si2 was 1.78.
In the case of “s24801 (sense CCAAGGTCCTGAGGTCTAA; chemistry not given here)”, the Score_si3 is reported as 1.43.
Work on “s24923 (sense GGAAGTGAAGGAGTAAGTA; chemistry not given here) [reference compound]” yielded a Score_si4 of -0.27.
With “s24924 (sense CAGTCGTCCTCAGATGATA; chemistry not given here) [reference compound]” the Score_si3 was -0.67.
“s25038 (sense GGTCTTTACTAGGTGTATT; chemistry not given here) [reference compound]” was tested, and the Score_si4 was -0.18.
“s25039 (sense CAAATTTCCTGTTAATCGA; chemistry not given here) [reference compound]” gave a Score_si3 of -0.41.
In the case of “s25184 (sense CCCATCAACTTCTCCGTGA; chemistry not given here)”, the Score_si4 is reported as 0.53.
With “s25186 (sense ACTTCTCCGTGATCCTGAA; chemistry not given here)” the Score_si2 was 1.53.
With “s25485 (sense ACTTCCTGTTGGTCTACAA; chemistry not given here)” the Score_si3 was 1.19.
“s25486 (sense GGTCTACAATCGGATGACA; chemistry not given here)” was tested, and the Score_si4 was 1.05.
Work on “s25487 (sense AGTATTTGTTGGTTCATAA; chemistry not given here)” yielded a Score_si2 of 1.54.
For “s25624 (sense GGAATGGTGTTGATACAAA; chemistry not given here) [reference compound]”, the Score_si3 was -0.7.
